According to ChEMBL document CHEMBL1201862, “PubChem BioAssay data set” (2004):
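Following 48 hours of exposure in 96-well plates, responses at five concentrations were used to interpolate endpoints linearly. GI50 is the concentration that inhibits growth by half.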 Active and inactive are the calls of the source. No stated cut-off is given here; in the data, active = GI50 up to about 1.1 µM and inactive = higher.

How the values were obtained:
Assay in all cases: growth of human tumour cells (NCI), 48 h
NCI-H23 = tested on: NCI-H23
M19-MEL = tested on: M19-MEL
SW-620 = tested on: SW-620
HOP-18 = tested on: HOP-18
IGROV-1 = tested on: IGROV-1
HL-60 = tested on: HL-60
SNB-75 = tested on: SNB-75
HCT-116 = tested on: HCT-116
RXF 393 = tested on: RXF 393
OVCAR-3 = tested on: OVCAR-3
RXF 631 = tested on: RXF 631
SNB-78 = tested on: SNB-78
MOLT-4 = tested on: MOLT-4
HCC 2998 = tested on: HCC 2998
K562 = tested on: K562
UO-31 = tested on: UO-31
OVCAR-5 = tested on: OVCAR-5
M14 = tested on: M14
UACC-257 = tested on: UACC-257
LXFL 529 = tested on: LXFL 529
HOP-62 = tested on: HOP-62
SF-268 = tested on: SF-268
SR = tested on: SR
OVCAR-4 = tested on: OVCAR-4
A498 = tested on: A498
SN12C = tested on: SN12C
Malme-3M = tested on: Malme-3M
NCI-H460 = tested on: NCI-H460
786-0 = tested on: 786-0
UACC-62 = tested on: UACC-62
HT-29 = tested on: HT-29
SF-539 = tested on: SF-539
CCRF-CEM = tested on: CCRF-CEM
U-251 = tested on: U-251
EKVX = tested on: EKVX
DLD-1 = tested on: DLD-1
DMS-114 = tested on: DMS-114
NCI-H226 = tested on: NCI-H226
TK-10 = tested on: TK-10
A549 = tested on: A549
KM-20L2 = tested on: KM-20L2
HCT-15 = tested on: HCT-15
SK-OV-3 = tested on: SK-OV-3
ACHN = tested on: ACHN
SNB-19 = tested on: SNB-19
RPMI-8226 = tested on: RPMI-8226
KM12 = tested on: KM12
SF-295 = tested on: SF-295
SK-MEL-28 = tested on: SK-MEL-28
XF498 = tested on: XF498
LOX IMVI = tested on: LOX IMVI
OVCAR-8 = tested on: OVCAR-8
CAKI-1 = tested on: CAKI-1
COLO 205 = tested on: COLO 205
SK-MEL-5 = tested on: SK-MEL-5
NCI-H522 = tested on: NCI-H522
HOP-92 = tested on: HOP-92
SK-MEL-2 = tested on: SK-MEL-2
DMS-273 = tested on: DMS-273

## COC(=O)C(c1n[nH]c2ccccc12)C(C(=O)OC)c1n[nH]c2ccccc12 (configuration not stated)
NCI-H23
  GI50: 30.9 µM (inactive)
M19-MEL
  GI50: > 100 µM (inactive)
SW-620
  GI50: 18.3 µM (inactive)
HOP-18
  GI50: 59.2 µM (inactive)
IGROV-1
  GI50: > 100 µM (inactive)
HL-60
  GI50: 16 µM (inactive)
SNB-75
  GI50: 50.1 µM (inactive)
HCT-116
  GI50: 41.4 µM (inactive)
RXF 393
  GI50: 24.9 µM (inactive)
OVCAR-3
  GI50: 41.8 µM (inactive)
RXF 631
  GI50: > 100 µM (inactive)
SNB-78
  GI50: 38.1 µM (inactive)
MOLT-4
  GI50: 22.7 µM (inactive)
HCC 2998
  GI50: > 100 µM (inactive)
K562
  GI50: 28 µM (inactive)
UO-31
  GI50: > 100 µM (inactive)
OVCAR-5
  GI50: > 100 µM (inactive)
M14
  GI50: 32.1 µM (inactive)
UACC-257
  GI50: 54.7 µM (inactive)
LXFL 529
  GI50: 26.2 µM (inactive)
HOP-62
  GI50: > 100 µM (inactive)
SF-268
  GI50: > 100 µM (inactive)
SR
  GI50: 30.4 µM (inactive)
OVCAR-4
  GI50: 18.8 µM (inactive)
A498
  GI50: > 100 µM (inactive)
SN12C
  GI50: 31.1 µM (inactive)
Malme-3M
  GI50: 42.7 µM (inactive)
NCI-H460
  GI50: 58.3 µM (inactive)
786-0
  GI50: 44.9 µM (inactive)
UACC-62
  GI50: 61.1 µM (inactive)
HT-29
  GI50: 64.4 µM (inactive)
SF-539
  GI50: 17 µM (inactive)
CCRF-CEM
  GI50: 24.5 µM (inactive)
U-251
  GI50: > 100 µM (inactive)
EKVX
  GI50: > 100 µM (inactive)
DLD-1
  GI50: 36.3 µM (inactive)
DMS-114
  GI50: 29.4 µM (inactive)
NCI-H226
  GI50: > 100 µM (inactive)
TK-10
  GI50: > 100 µM (inactive)
A549
  GI50: > 100 µM (inactive)
KM-20L2
  GI50: > 100 µM (inactive)
HCT-15
  GI50: > 100 µM
SK-OV-3
  GI50: > 100 µM (inactive)
ACHN
  GI50: 49.4 µM (inactive)
SNB-19
  GI50: > 100 µM (inactive)
RPMI-8226
  GI50: 13.5 µM (inactive)
KM12
  GI50: > 100 µM (inactive)
SF-295
  GI50: > 100 µM (inactive)
SK-MEL-28
  GI50: 41.7 µM (inactive)
XF498
  GI50: 41.8 µM (inactive)
LOX IMVI
  GI50: 68.2 µM (inactive)
OVCAR-8
  GI50: 24.8 µM (inactive)

## CCN(CC)c1ccc2c(c1)Nc1cc(=C(C#N)C#N)c3ccccc3c1=N2
NCI-H23
  GI50: > 100 µM (inactive)
M19-MEL
  GI50: > 100 µM (inactive)
SW-620
  GI50: 59 µM (inactive)
HOP-18
  GI50: > 100 µM (inactive)
IGROV-1
  GI50: > 100 µM (inactive)
HL-60
  GI50: > 100 µM (inactive)
SNB-75
  GI50: > 100 µM (inactive)
HCT-116
  GI50: 82.6 µM (inactive)
RXF 393
  GI50: > 100 µM (inactive)
OVCAR-3
  GI50: > 100 µM (inactive)
RXF 631
  GI50: > 100 µM (inactive)
SNB-78
  GI50: > 100 µM (inactive)
MOLT-4
  GI50: > 100 µM (inactive)
CAKI-1
  GI50: > 100 µM (inactive)
COLO 205
  GI50: > 100 µM (inactive)
HCC 2998
  GI50: > 100 µM (inactive)
SK-MEL-5
  GI50: > 100 µM (inactive)
K562
  GI50: > 100 µM (inactive)
UO-31
  GI50: > 100 µM (inactive)
OVCAR-5
  GI50: > 100 µM (inactive)
M14
  GI50: > 100 µM (inactive)
UACC-257
  GI50: > 100 µM (inactive)
LXFL 529
  GI50: > 100 µM (inactive)
HOP-62
  GI50: > 100 µM (inactive)
SF-268
  GI50: > 100 µM (inactive)
SR
  GI50: > 100 µM (inactive)
OVCAR-4
  GI50: > 100 µM (inactive)
A498
  GI50: > 100 µM (inactive)
SN12C
  GI50: > 100 µM (inactive)
Malme-3M
  GI50: > 100 µM (inactive)
NCI-H460
  GI50: 95.3 µM (inactive)
NCI-H522
  GI50: > 100 µM (inactive)
HOP-92
  GI50: > 100 µM (inactive)
786-0
  GI50: > 100 µM (inactive)
UACC-62
  GI50: > 100 µM (inactive)
HT-29
  GI50: > 100 µM (inactive)
SF-539
  GI50: > 100 µM (inactive)
SK-MEL-2
  GI50: > 100 µM (inactive)
U-251
  GI50: > 100 µM (inactive)
EKVX
  GI50: > 100 µM (inactive)
DLD-1
  GI50: > 100 µM (inactive)
DMS-114
  GI50: > 100 µM (inactive)
DMS-273
  GI50: > 100 µM (inactive)
NCI-H226
  GI50: > 100 µM (inactive)
TK-10
  GI50: > 100 µM (inactive)
A549
  GI50: > 100 µM (inactive)
KM-20L2
  GI50: > 100 µM (inactive)
SK-OV-3
  GI50: > 100 µM (inactive)
ACHN
  GI50: > 100 µM (inactive)
SNB-19
  GI50: > 100 µM (inactive)
RPMI-8226
  GI50: > 100 µM (inactive)
KM12
  GI50: > 100 µM (inactive)
SF-295
  GI50: > 100 µM (inactive)
SK-MEL-28
  GI50: > 100 µM (inactive)
XF498
  GI50: > 100 µM (inactive)
LOX IMVI
  GI50: 53.5 µM (inactive)
OVCAR-8
  GI50: 61 µM (inactive)

## COC(=O)[C@H]1COC(=S)N1C(=O)[C@@H](C)[C@H](O)C(C)C
NCI-H23
  GI50: > 100 µM (inactive)
M19-MEL
  GI50: > 100 µM (inactive)
SW-620
  GI50: > 100 µM (inactive)
HOP-18
  GI50: > 100 µM (inactive)
IGROV-1
  GI50: > 100 µM (inactive)
HL-60
  GI50: > 100 µM (inactive)
SNB-75
  GI50: 42 µM (inactive)
HCT-116
  GI50: > 100 µM (inactive)
RXF 393
  GI50: > 100 µM (inactive)
OVCAR-3
  GI50: > 100 µM (inactive)
RXF 631
  GI50: > 100 µM (inactive)
SNB-78
  GI50: > 100 µM (inactive)
MOLT-4
  GI50: > 100 µM (inactive)
CAKI-1
  GI50: > 100 µM (inactive)
COLO 205
  GI50: > 100 µM (inactive)
HCC 2998
  GI50: > 100 µM (inactive)
SK-MEL-5
  GI50: > 100 µM (inactive)
K562
  GI50: > 100 µM (inactive)
UO-31
  GI50: > 100 µM (inactive)
OVCAR-5
  GI50: > 100 µM (inactive)
M14
  GI50: > 100 µM (inactive)
UACC-257
  GI50: > 100 µM (inactive)
LXFL 529
  GI50: > 100 µM (inactive)
HOP-62
  GI50: > 100 µM (inactive)
SF-268
  GI50: > 100 µM (inactive)
SR
  GI50: > 100 µM (inactive)
OVCAR-4
  GI50: > 100 µM (inactive)
A498
  GI50: > 100 µM (inactive)
SN12C
  GI50: > 100 µM (inactive)
Malme-3M
  GI50: > 100 µM (inactive)
NCI-H460
  GI50: > 100 µM (inactive)
HOP-92
  GI50: > 100 µM (inactive)
786-0
  GI50: > 100 µM (inactive)
UACC-62
  GI50: > 100 µM (inactive)
HT-29
  GI50: > 100 µM (inactive)
SF-539
  GI50: > 100 µM (inactive)
CCRF-CEM
  GI50: > 100 µM (inactive)
SK-MEL-2
  GI50: > 100 µM (inactive)
U-251
  GI50: > 100 µM (inactive)
EKVX
  GI50: > 100 µM (inactive)
DLD-1
  GI50: > 100 µM (inactive)
DMS-114
  GI50: 84.7 µM (inactive)
DMS-273
  GI50: > 100 µM (inactive)
NCI-H226
  GI50: 12.8 µM (inactive)
TK-10
  GI50: > 100 µM (inactive)
A549
  GI50: > 100 µM (inactive)
KM-20L2
  GI50: > 100 µM (inactive)
HCT-15
  GI50: > 100 µM
SK-OV-3
  GI50: > 100 µM (inactive)
ACHN
  GI50: > 100 µM (inactive)
SNB-19
  GI50: > 100 µM (inactive)
RPMI-8226
  GI50: > 100 µM (inactive)
KM12
  GI50: > 100 µM (inactive)
SF-295
  GI50: > 100 µM (inactive)
SK-MEL-28
  GI50: > 100 µM (inactive)
XF498
  GI50: > 100 µM (inactive)
LOX IMVI
  GI50: 57.4 µM (inactive)
OVCAR-8
  GI50: > 100 µM (inactive)
